{"source": "patent US20090062388A1", "about": "“Use of acetyl L-carnitine for the preparation of a medication for the preventive therapy for pain” (Sigma-Tau Industrie Farmaceutiche Riunite S.p.A., priority 2001, published 2009)", "key": {"mice": {"test_system": "mice", "assay_type": "in vivo", "settings": "Acetyl L-carnitine 100 mg/kg BID SC 7 days", "method": "The analgesia induced by the acetyl L-carnitine (100 mg/kg BID, SC for 7 days) was determined in presence of some antagonists of some neurotransmission systems deeply involved in the regulation of pain threshold, and in particular the naloxone (opioid antagonist), the CGP-35348 (GABAB antagonist) and the alpha-methyl-p-tyrosine (inhibitor of the synthesis of cathecolamines).\nIn agreement with the standard procedures known by the person skilled in the art, the doses used for any antagonist were the minimum required to prevent the analgesia induced by morphine (7 mg/kg SC) (1, 100 e 200 mg/kg IP), baclofen (4 mg/kg SC) and amphetamine (1 mg/kg SC) (non-reported data) respectively."}, "Male Swiss Webster mice": {"test_system": "Male Swiss Webster mice", "assay": "Hyperalgesia induced by morphine withdrawal syndrome (hot plate)"}}, "note": "Like-named read-outs stand apart in the source and are kept apart here."}
{"smiles": "CC(=O)O[C@H](CC(=O)[O-])C[N+](C)(C)C", "note": "[Acetyl L-carnitine, acetyl L-carnitine]", "values": [{"measurement": "Hot plate Licking latency", "setting": "mice; pre-treat. Alpha-M-p-T 200 mg/kg, after treatment 15 min", "result": "22.5 ± 2.0", "unit": "s"}, {"measurement": "Hot plate Licking latency", "setting": "mice; pre-treat. Alpha-M-p-T 200 mg/kg, after treatment 30 min", "result": "21.5 ± 1.7", "unit": "s"}, {"measurement": "Hot plate Licking latency", "setting": "mice; pre-treat. Alpha-M-p-T 200 mg/kg, after treatment 45 min", "result": "21.6 ± 1.5^ sec"}, {"measurement": "Hot plate Licking latency", "setting": "mice; pre-treat. Alpha-M-p-T 200 mg/kg, before treatment", "result": "22.0 ± 1.3", "unit": "s"}, {"measurement": "Hot plate Licking latency", "setting": "mice; pre-treat. Atropine 5 mg/kg, after treatment 15 min", "result": "11.4 ± 1.7", "unit": "° sec"}, {"measurement": "Hot plate Licking latency", "setting": "mice; pre-treat. Atropine 5 mg/kg, after treatment 30 min", "result": "12.6 ± 1.9", "unit": "° sec"}, {"measurement": "Hot plate Licking latency", "setting": "mice; pre-treat. Atropine 5 mg/kg, after treatment 45 min", "result": "12.8 ± 1.3", "unit": "° sec"}, {"measurement": "Hot plate Licking latency", "setting": "mice; pre-treat. Atropine 5 mg/kg, before treatment", "result": "21.2 ± 1.0^ sec"}, {"measurement": "Hot plate Licking latency", "setting": "mice; pre-treat. CGP 35348 100 mg/kg, after treatment 15 min", "result": "21.1 ± 1.2^ sec"}, {"measurement": "Hot plate Licking latency", "setting": "mice; pre-treat. CGP 35348 100 mg/kg, after treatment 30 min", "result": "21.0 ± 2.1^ sec"}, {"measurement": "Hot plate Licking latency", "setting": "mice; pre-treat. CGP 35348 100 mg/kg, after treatment 45 min", "result": "20.3 ± 1.9^ sec"}, {"measurement": "Hot plate Licking latency", "setting": "mice; pre-treat. CGP 35348 100 mg/kg, before treatment", "result": "22.1 ± 0.7", "unit": "s"}, {"measurement": "Hot plate Licking latency", "setting": "mice; pre-treat. HC-3 1 μg ICV, after treatment 15 min", "result": "14.6 ± 1.3", "unit": "° sec"}, {"measurement": "Hot plate Licking latency", "setting": "mice; pre-treat. HC-3 1 μg ICV, after treatment 30 min", "result": "14.0 ± 1.8", "unit": "° sec"}, {"measurement": "Hot plate Licking latency", "setting": "mice; pre-treat. HC-3 1 μg ICV, after treatment 45 min", "result": "15.5 ± 1.9", "unit": "° sec"}, {"measurement": "Hot plate Licking latency", "setting": "mice; pre-treat. HC-3 1 μg ICV, before treatment", "result": "22.0 ± 1.1^ sec"}, {"measurement": "Hot plate Licking latency", "setting": "mice; pre-treat. Naloxone 1 mg/kg, after treatment 15 min", "result": "22.3 ± 1.9", "unit": "s"}, {"measurement": "Hot plate Licking latency", "setting": "mice; pre-treat. Naloxone 1 mg/kg, after treatment 30 min", "result": "22.1 ± 2.0", "unit": "s"}, {"measurement": "Hot plate Licking latency", "setting": "mice; pre-treat. Naloxone 1 mg/kg, after treatment 45 min", "result": "20.6 ± 1.2^ sec"}, {"measurement": "Hot plate Licking latency", "setting": "mice; pre-treat. Naloxone 1 mg/kg, before treatment", "result": "22.6 ± 0.6", "unit": "s"}, {"measurement": "Hot plate Licking latency", "setting": "mice; pre-treat. Pirenzepine 0.1 μg ICV, after treatment 15 min", "result": "16.5 ± 1.8", "unit": "° sec"}, {"measurement": "Hot plate Licking latency", "setting": "mice; pre-treat. Pirenzepine 0.1 μg ICV, after treatment 30 min", "result": "14.3 ± 2.0", "unit": "° sec"}, {"measurement": "Hot plate Licking latency", "setting": "mice; pre-treat. Pirenzepine 0.1 μg ICV, after treatment 45 min", "result": "17.1 ± 1.6", "unit": "° sec"}, {"measurement": "Hot plate Licking latency", "setting": "mice; pre-treat. Pirenzepine 0.1 μg ICV, before treatment", "result": "21.6 ± 1.3^ sec"}, {"measurement": "Hot plate Licking latency", "setting": "mice; pre-treat. S-(−)-ET-126 0.1 μg ICV, after treatment 15 min", "result": "15.8 ± 2.2", "unit": "° sec"}, {"measurement": "Hot plate Licking latency", "setting": "mice; pre-treat. S-(−)-ET-126 0.1 μg ICV, after treatment 30 min", "result": "16.9 ± 2.3", "unit": "° sec"}, {"measurement": "Hot plate Licking latency", "setting": "mice; pre-treat. S-(−)-ET-126 0.1 μg ICV, after treatment 45 min", "result": "15.8 ± 1.8", "unit": "° sec"}, {"measurement": "Hot plate Licking latency", "setting": "mice; pre-treat. S-(−)-ET-126 0.1 μg ICV, before treatment", "result": "22.9 ± 1.3^ sec"}, {"measurement": "Hot plate Licking latency", "setting": "mice; pre-treat. physiological solution 10 ml/kg, after treatment 15 min", "result": "22.6 ± 1.3", "unit": "s"}, {"measurement": "Hot plate Licking latency", "setting": "mice; pre-treat. physiological solution 10 ml/kg, after treatment 30 min", "result": "22.5 ± 1.3", "unit": "s"}, {"measurement": "Hot plate Licking latency", "setting": "mice; pre-treat. physiological solution 10 ml/kg, after treatment 45 min", "result": "22.9 ± 1.6^ sec"}, {"measurement": "Hot plate Licking latency", "setting": "mice; pre-treat. physiological solution 10 ml/kg, before treatment", "result": "21.8 ± 1.1", "unit": "s"}, {"measurement": "reversal of hyperalgesia induced by morphine withdrawal syndrome", "setting": "Male Swiss Webster mice; one single administration, 5 hours and 30 minutes from replacement of morphine with water (FIG. 5bis)", "result": "not after one single administration"}, {"measurement": "reversal of hyperalgesia induced by morphine withdrawal syndrome", "setting": "Male Swiss Webster mice; repeated treatment 100 mg/kg BID, IP or SC for 7 days (FIG. 5)", "result": "capable of reverting the hyperalgesia"}]}
